# From patent US20160138077A1, “MONITORING AND ASSESSING DEACETYLASE ENZYME ACTIVITY” (THE GENERAL HOSPITAL CORPORATION, priority 2013, published 2016)
# Assays:
# Format in all cases: biochemical
# HDAC2 = HDAC2 (Homo sapiens, UniProt Q92769); experiment: LCMS characterization of enzymatic deacetylation by HDAC2; conditions: 5 μM probe, 12 hours at 37° C.
# Procedure: (§1) The enzymatic cleavage of HP-1 and HP-2 was analyzed by performing LCMS assays with HeLa nuclear extract (AnaSpec), HeLa whole cell lysate (Santa Cruz Inc.), and the following purified HDAC isoforms: 1, 2, 3, 6 and 8 (HDAC1, 3 and 8 from Cayman Chemicals and HDAC2 and 6 provided by Dr. Stephen Haggarty). Solutions containing (i) vehicle with DMSO in HDAC buffer, (ii) 5 μM probe in HDAC buffer, (iii) 5 μM probe and HDAC enzyme/HeLa nuclear extract/HeLa whole cell lysate in HDAC buffer, or (iv) 5 μM probe and HDAC enzyme/HeLa nuclear extract/HeLa whole cell lysate pre-incubated with 10 μM SAHA (Provided by Dr. Stephen Haggarty) in HDAC buffer were incubated for 12 hours at 37° C. Following incubation, a 20 μL aliquot of supernatant from each sample was analyzed by LCMS. […] For HP-1, the (M+H)^+ ion for the corresponding aldehyde (8, DHP-1) was detected, which formed following reaction of the initial imine deacetylation product with water. […] The peak area for each detected compound was measured to determine the % deacetylation of each probe. All assay samples were analyzed in triplicate. […]
# (§2) LCMS characterization of HDAC enzymatic action on HP-1 and HP-2. […] Following incubation, an aliquot of supernatant from each sample was analyzed by LCMS. […] The peak area for each detected compound was measured to determine the % deacetylation of each probe (full experimental details in Example 1).
# HDAC3 = molecular target: T1, HDAC3 (Homo sapiens, UniProt O15379); experiment: LCMS characterization of enzymatic deacetylation by HDAC3, incl. cleavage over time (kobs, T1/2); conditions: for % HP-1 to DHP-1: 5 μM probe, 12 hours at 37° C.
# T1 construct: purchased Cayman Chemicals
# Procedure: The enzymatic cleavage of HP-1 and HP-2 was analyzed by performing LCMS assays with HeLa nuclear extract (AnaSpec), HeLa whole cell lysate (Santa Cruz Inc.), and the following purified HDAC isoforms: 1, 2, 3, 6 and 8 (HDAC1, 3 and 8 from Cayman Chemicals and HDAC2 and 6 provided by Dr. Stephen Haggarty). Solutions containing (i) vehicle with DMSO in HDAC buffer, (ii) 5 μM probe in HDAC buffer, (iii) 5 μM probe and HDAC enzyme/HeLa nuclear extract/HeLa whole cell lysate in HDAC buffer, or (iv) 5 μM probe and HDAC enzyme/HeLa nuclear extract/HeLa whole cell lysate pre-incubated with 10 μM SAHA (Provided by Dr. Stephen Haggarty) in HDAC buffer were incubated for 12 hours at 37° C. Following incubation, a 20 μL aliquot of supernatant from each sample was analyzed by LCMS. Deacetylation of HP-1 and 2 was confirmed by detection of the (M+H)^+.ion following positive electrospray ionization. For HP-1, the (M+H)^+ ion for the corresponding aldehyde (8, DHP-1) was detected, which formed following reaction of the initial imine deacetylation product with water. For HP-2, the […]. ion for the corresponding amine (6, DHP-2) was identified. The peak area for each detected compound was measured to determine the % deacetylation of each probe. All assay samples were analyzed in triplicate. […]
# The rate of cleavage of HP-1 by purified HDAC3 was analyzed by performing a LCMS assay. […] Following incubation, a 20 μL aliquot of supernatant from each sample was analyzed by LCMS at t=0, 1, 2, 4, 8, and 12 hours. […] For HP-1, the (M+H)^+ ion for the corresponding aldehyde (8, DHP-1) was detected, which formed following reaction of the initial imine deacetylation product with water. The peak area for each detected compound was measured to determine the % deacetylation of each probe. The observed rate constant was determined using Graphpad by plotting Ln(DHP-1 peak area) versus time. […] All assay samples were analyzed in triplicate. […]
# LCMS characterization of HDAC enzymatic action on HP-1 and HP-2. […] Following incubation, an aliquot of supernatant from each sample was analyzed by LCMS. […]
# HDAC8 = molecular target: T2, HDAC8 (Homo sapiens, UniProt Q9BY41); experiment: LCMS characterization of enzymatic deacetylation by HDAC8; conditions: 5 μM probe, 12 hours at 37° C.
# T2 construct: purchased Cayman Chemicals
# T2 sequence (Q9BY41 1-377): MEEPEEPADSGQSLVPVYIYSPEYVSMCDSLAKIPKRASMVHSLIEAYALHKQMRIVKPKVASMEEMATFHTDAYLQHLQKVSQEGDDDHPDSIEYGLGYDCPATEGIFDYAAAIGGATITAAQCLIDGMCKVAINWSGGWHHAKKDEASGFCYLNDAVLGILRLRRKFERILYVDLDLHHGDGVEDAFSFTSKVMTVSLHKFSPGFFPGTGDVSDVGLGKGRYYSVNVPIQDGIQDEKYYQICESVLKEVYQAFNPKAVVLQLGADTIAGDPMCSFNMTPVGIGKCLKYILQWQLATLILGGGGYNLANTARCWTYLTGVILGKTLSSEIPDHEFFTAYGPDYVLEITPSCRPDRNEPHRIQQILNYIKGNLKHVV
# Procedure: as §1, §2
# T1 sequence (O15379 whole entry): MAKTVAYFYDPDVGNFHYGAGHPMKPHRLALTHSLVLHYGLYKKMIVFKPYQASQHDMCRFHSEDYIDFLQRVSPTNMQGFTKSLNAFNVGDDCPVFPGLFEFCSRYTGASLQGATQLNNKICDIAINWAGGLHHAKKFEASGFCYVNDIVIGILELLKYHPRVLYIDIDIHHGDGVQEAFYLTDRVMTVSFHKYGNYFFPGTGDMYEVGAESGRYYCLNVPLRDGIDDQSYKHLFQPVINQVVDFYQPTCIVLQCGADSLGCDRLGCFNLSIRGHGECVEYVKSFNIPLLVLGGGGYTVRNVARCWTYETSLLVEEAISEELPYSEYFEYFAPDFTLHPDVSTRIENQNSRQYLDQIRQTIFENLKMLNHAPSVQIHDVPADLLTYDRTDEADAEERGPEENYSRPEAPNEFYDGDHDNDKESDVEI
# T1 sequence (Q9Y618 395-489 partner limits assumed): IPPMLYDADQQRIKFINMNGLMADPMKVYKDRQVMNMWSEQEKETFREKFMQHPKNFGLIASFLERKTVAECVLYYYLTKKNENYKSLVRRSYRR
# Chain of HDAC2 (Q92769 whole entry, species assumed, canonical isoform): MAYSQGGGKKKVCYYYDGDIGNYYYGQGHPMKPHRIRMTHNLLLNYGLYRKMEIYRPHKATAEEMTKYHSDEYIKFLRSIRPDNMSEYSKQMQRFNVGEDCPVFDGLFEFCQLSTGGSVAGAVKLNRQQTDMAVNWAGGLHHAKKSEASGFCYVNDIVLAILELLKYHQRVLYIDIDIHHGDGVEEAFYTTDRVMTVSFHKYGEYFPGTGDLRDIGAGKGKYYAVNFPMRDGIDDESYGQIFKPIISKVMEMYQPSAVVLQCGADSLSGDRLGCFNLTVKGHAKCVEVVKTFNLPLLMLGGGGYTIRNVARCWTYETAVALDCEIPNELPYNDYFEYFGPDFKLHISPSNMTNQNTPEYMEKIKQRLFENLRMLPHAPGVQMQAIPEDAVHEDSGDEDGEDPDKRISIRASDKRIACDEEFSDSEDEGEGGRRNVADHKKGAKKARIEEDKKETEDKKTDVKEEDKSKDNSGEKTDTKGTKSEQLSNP
compound,measurement,setting,value
CC(=O)NC=CCCCCNC(=O)CCCCCNc1ccc([N+](=O)[O-])c2nonc12 [HP-1],% HP-1 to DHP-1,"HDAC2; HDAC2, +SAHA (10 μM)",0%
same,% HP-1 to DHP-1,"HDAC2; HDAC2, −SAHA",0%
same,kobs with HDAC3 (conversion of HP-1 to DHP-1),"HDAC3; 5 μM HP-1, HDAC3, 37° C., t=0-12 hours, Ln(DHP-1 peak area) versus time",3.2e-05 ± 6e-06 s⁻¹
same,% HP-1 to DHP-1,"HDAC3; HDAC3, +SAHA (10 μM)",0%
same,% HP-1 to DHP-1,"HDAC3; HDAC3, −SAHA, maximum detected conversion",93%
same,% HP-1 to DHP-1,"HDAC8; HDAC8, +SAHA (10 μM)",0%
same,% HP-1 to DHP-1,"HDAC8; HDAC8, −SAHA",0%
